Assay results published in the supplement of paper PMC5908809.

Key:
[1] = test system: normal NK cells expanded with K562-aAPC; experiment: percent inhibition of viability; higher = more inhibition; conditions: 72 h, IL-2 2.5 ng/mL
Procedure: (§1)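 Drug sensitivity and resistance testing on K562-aAPC-expanded normal NK cells: 5 concentrations (10-fold steps over a 10,000-fold range), 72 h at 37 °C, viability by CellTiter-Glo normalised to DMSO and benzethonium chloride controls; DSS from the fitted curve.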

DERL-7 (IL-2 2.5 ng/mL) [2] = experiment: as above; conditions: 72 h
IMC-1 (IL-2 20 ng/mL) [3] = experiment: as above; conditions: 72 h
KAI3 (IL-2 2.5 ng/mL) [4] = experiment: as above; conditions: 72 h
KHYG-1 (IL-2 2.5 ng/mL) [5] = experiment: as above; conditions: 72 h
NK-92 (IL-2 2.5 ng/mL) [6] = experiment: as above; conditions: 72 h
NK-YS (IL-2 2.5 ng/mL) [7] = experiment: as above; conditions: 72 h
NKL (IL-2 2.5 ng/mL) [8] = experiment: as above; conditions: 72 h
SNK-6 (IL-2 2.5 ng/mL) [9] = experiment: as above; conditions: 72 h
YT (IL-2 2.5 ng/mL) [10] = experiment: as above; conditions: 72 h
[11] = test system: normal primary NK cells, pool 1 (3 donors) (IL-2 2.5 ng/mL); experiment: as above; conditions: 72 h
[12] = test system: normal primary NK cells, pool 1 (3 donors), resting (IL-2 0 ng/mL); experiment: as above; conditions: 72 h
[13] = test system: normal primary NK cells, pool 2 (3 donors) (IL-2 2.5 ng/mL); experiment: as above; conditions: 72 h
[14] = test system: normal primary NK cells, pool 3 (3 donors) (IL-2 2.5 ng/mL); experiment: as above; conditions: 72 h
[15] = test system: normal NK cells expanded with K562-aAPC; experiment: drug sensitivity score (DSS) (DSS units); higher = more sensitive; extreme values may be limits of the assay; conditions: 72 h; IL-2 2.5 ng/mL
Procedure: as §1

DERL-7 (IL-2 2.5 ng/mL) [16] = experiment: as above; conditions: 72 h
IMC-1 (IL-2 20 ng/mL) [17] = experiment: as above; conditions: 72 h
KAI3 (IL-2 2.5 ng/mL) [18] = experiment: as above; conditions: 72 h
KHYG-1 (IL-2 2.5 ng/mL) [19] = experiment: as above; conditions: 72 h
NK-92 (IL-2 2.5 ng/mL) [20] = experiment: as above; conditions: 72 h
NK-YS (IL-2 2.5 ng/mL) [21] = experiment: as above; conditions: 72 h
NKL (IL-2 2.5 ng/mL) [22] = experiment: as above; conditions: 72 h
SNK-6 (IL-2 2.5 ng/mL) [23] = experiment: as above; conditions: 72 h
YT (IL-2 2.5 ng/mL) [24] = experiment: as above; conditions: 72 h
[25] = test system: normal primary NK cells, pool 1 (3 donors) (IL-2 2.5 ng/mL); experiment: as above; conditions: 72 h
[26] = test system: normal primary NK cells, pool 1 (3 donors), resting (IL-2 0 ng/mL); experiment: as above; conditions: 72 h
[27] = test system: normal primary NK cells, pool 2 (3 donors) (IL-2 2.5 ng/mL); experiment: as above; conditions: 72 h
[28] = test system: normal primary NK cells, pool 3 (3 donors) (IL-2 2.5 ng/mL); experiment: as above; conditions: 72 h

COc1cccc2c1C(=O)c1c(O)c3c(c(O)c1C2=O)C[C@@](O)(/C(CO)=N/NC(=O)CCCCCN1C(=O)C=CC1=O)C[C@@H]3O[C@H]1C[C@H](N)[C@H](O)[C@H](C)O1 [Aldoxorubicin] (max concentration tested 1000 nM)
percent inhibition of viability [%]
Conditions	0.1 nM	1 nM	10 nM	100 nM	1000 nM
DERL-7 (IL-2 2.5 ng/mL) [2]	-4.24	-3.44	13.3	87.3	101
IMC-1 (IL-2 20 ng/mL) [3]	-3.88	-4.51	3.18	86.5	101
KAI3 (IL-2 2.5 ng/mL) [4]	-11.1	-12.4	4.9	74.1	87
KHYG-1 (IL-2 2.5 ng/mL) [5]	-0.32	5.45	-0.18	79.9	106
NK-92 (IL-2 2.5 ng/mL) [6]	-14.3	-7.33	-3.29	53.2	104
NK-YS (IL-2 2.5 ng/mL) [7]	-4.26	-3.37	13.9	83.1	103
NKL (IL-2 2.5 ng/mL) [8]	-13.6	-5.62	92.1	103	107
SNK-6 (IL-2 2.5 ng/mL) [9]	7.67	13.7	17.1	91.1	95.2
YT (IL-2 2.5 ng/mL) [10]	3.75	-0.69	-3.82	70.5	105
[1]	0.3	4.21	5.36	47	101
[11]	-11.9	-3.83	-12.3	29.5	97.6
[12]	-26	-23.3	-31.6	64.9	91.5
[13]	-13.7	-6.33	0.42	49.2	94.5
[14]	-11.3	-10.4	0.28	31.5	97.1

Conditions	drug sensitivity score
DERL-7 (IL-2 2.5 ng/mL) [16]	17.6
IMC-1 (IL-2 20 ng/mL) [17]	16
KAI3 (IL-2 2.5 ng/mL) [18]	14.2
KHYG-1 (IL-2 2.5 ng/mL) [19]	14.7
NK-92 (IL-2 2.5 ng/mL) [20]	12
NK-YS (IL-2 2.5 ng/mL) [21]	17
NKL (IL-2 2.5 ng/mL) [22]	28.9
SNK-6 (IL-2 2.5 ng/mL) [23]	18.9
YT (IL-2 2.5 ng/mL) [24]	13.6
[15]	11.1
[25]	9.69
[26]	12.4
[27]	11.3
[28]	9.86

Oc1nc(-c2ccc(C(F)(F)F)cc2)nc2c1CSCC2 [XAV-939] (max concentration tested 10000 nM)
percent inhibition of viability [%]
Conditions	1 nM	10 nM	100 nM	1000 nM	10000 nM
DERL-7 (IL-2 2.5 ng/mL) [2]	-0.97	2.31	-5.81	-0.61	-5.6
IMC-1 (IL-2 20 ng/mL) [3]	-0.75	0.78	6.56	9.99	39.2
KAI3 (IL-2 2.5 ng/mL) [4]	-2.16	1.91	4.79	4.07	5.97
KHYG-1 (IL-2 2.5 ng/mL) [5]	-8.26	-1.11	3.24	1.73	10.4
NK-92 (IL-2 2.5 ng/mL) [6]	-10.9	2.21	17.2	22	31.4
NK-YS (IL-2 2.5 ng/mL) [7]	-12.6	-2.95	-1.3	-3.02	5.39
NKL (IL-2 2.5 ng/mL) [8]	1.91	-6.23	10.7	20.1	4.9
SNK-6 (IL-2 2.5 ng/mL) [9]	-1.06	-8.2	12.5	35.6	76
YT (IL-2 2.5 ng/mL) [10]	4.14	5.64	7.84	-1.3	6.37
[1]	1.61	2.89	1.43	14.1	19.3
[11]	7.73	0.81	-0.78	0.58	4.2
[12]	-4.7	-1.64	-3.21	-28.2	-2.43
[13]	-8.38	-12	-5.14	5.25	5.51
[14]	-11	-5.69	-2.72	0.89	10.2

Conditions	drug sensitivity score
DERL-7 (IL-2 2.5 ng/mL) [16]	0
IMC-1 (IL-2 20 ng/mL) [17]	3.24
KAI3 (IL-2 2.5 ng/mL) [18]	0
KHYG-1 (IL-2 2.5 ng/mL) [19]	0.01
NK-92 (IL-2 2.5 ng/mL) [20]	5.52
NK-YS (IL-2 2.5 ng/mL) [21]	0
NKL (IL-2 2.5 ng/mL) [22]	0.48
SNK-6 (IL-2 2.5 ng/mL) [23]	8.49
YT (IL-2 2.5 ng/mL) [24]	0
[15]	1.76
[25]	0
[26]	0
[27]	0
[28]	0
